{"source": "patent US6472403B2", "about": "“αV integrin receptor antagonists” (Merck & Co., Inc., priority 2000, dated 2002)", "origin": "cited, not measured here", "system": "postmenopausal osteoporotic women", "details": "median of 22 months of treatment"}
{"compound": "CC[C@H](C)[C@H](NC(=O)[C@H](CCC(=O)O)NC(=O)[C@H](CO)NC(=O)[C@@H](NC(=O)[C@@H](N)CO)C(C)C)C(=O)N[C@@H](CCC(N)=O)C(=O)N[C@@H](CC(C)C)C(=O)N[C@@H](CCSC)C(=O)N[C@@H](Cc1cnc[nH]1)C(=O)N[C@@H](CC(N)=O)C(=O)N[C@@H](CC(C)C)C(=O)NCC(=O)N[C@@H](CCCCN)C(=O)N[C@@H](Cc1cnc[nH]1)C(=O)N[C@@H](CC(C)C)C(=O)N[C@@H](CC(N)=O)C(=O)N[C@@H](CO)C(=O)N[C@@H](CCSC)C(=O)N[C@@H](CCC(=O)O)C(=O)N[C@@H](CCCN=C(N)N)C(=O)N[C@H](C(=O)N[C@@H](CCC(=O)O)C(=O)N[C@@H](Cc1c[nH]c2ccccc12)C(=O)N[C@@H](CC(C)C)C(=O)N[C@@H](CCCN=C(N)N)C(=O)N[C@@H](CCCCN)C(=O)N[C@@H](CCCCN)C(=O)N[C@@H](CC(C)C)C(=O)N[C@@H](CCC(N)=O)C(=O)N[C@@H](CC(=O)O)C(=O)N[C@H](C(=O)N[C@@H](Cc1cnc[nH]1)C(=O)N[C@@H](CC(N)=O)C(=O)N[C@@H](Cc1ccccc1)C(=O)O)C(C)C)C(C)C", "note": "[hPTH(1-34)]", "values": [{"measurement": "reduction in nonvertebral fractures", "value": 54, "unit": "%"}, {"measurement": "reduction in spine fractures", "value": "≥ 65", "unit": "%"}]}
